Results from patent publication US20090275583A1, “ANTIVIRAL COMPOUNDS AND USE THEREOF” (Myriad Genetics, Incorporated, priority 2006, published 2009).
Where two headings read alike, the source gives them in different places.

Assays:
[1] = system: HIV-1 laboratory strain, NL4-3; experiment: MT-4 cytoprotection assay; format: cell-based
Outline: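 MT-4 cells mock- or batch-infected with NL4-3 (MOI 0.0005) for 2 h, washed, then cultured 4 days with increasing compound concentrations. Viability read by WST-1 tetrazolium reduction: cytoprotection in infected cells, toxicity in mock-infected cells.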

HIV-1NL4-3 = experiment: P4-MAGI assay; format: cell-based
Outline: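 HeLa-derived CD4+ P4 cells carrying an LTR-driven lacZ were infected with HIV-1NL4-3 at MOI 1 with DEAE-Dextran, then compound added in increasing concentrations right after virus; infection reported as Tat-induced β-galactosidase. TC50 measured by WST-1 in mock-infected cells.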

[2] = Human immunodeficiency virus 1, NL43, MT4, 96 h, MT-4 cells, four days incubation, WST-1 readout, read-out: MT4 EC50
[3] = Human immunodeficiency virus 1, NL43, less than about 100 nm, read-out: MT-4 assay EC50 (concentration of compound that reduces the virus induced cytopathic effect by 50%)
[4] = Human immunodeficiency virus 1, 24 h, P4 cells, 24 hour incubation, β-galactosidase expression, read-out: P4-MAGI IC50
[5] = Human immunodeficiency virus 1, text statement, less than about 100 nm, read-out: P4-MAGI assay IC50

Structure (SMILES)	EC50 [1, 2] [µM]	EC50 [1, 3] [µM]	IC50 (HIV-1NL4-3; [4]) [µM]	IC50 (HIV-1NL4-3; [5]) [µM]
C=C(C)[C@@H]1CC[C@]2(C(=O)NCc3cc(C(=O)NCc4ccc(C(=O)O)cc4)ccc3F)CC[C@]3(C)C(CCC4[C@@]5(C)CC[C@H](O)C(C)(C)C5CC[C@]43C)C12 (some centres unmarked) [Example 99]	0.0028	< 0.1	0.0201	< 0.1
C=C(C)[C@@H]1CC[C@]2(C(=O)NCc3cc(C(=O)NCc4ccc(C(=O)OC)cc4)ccc3F)CC[C@]3(C)C(CCC4[C@@]5(C)CC[C@H](O)C(C)(C)C5CC[C@]43C)C12 (some centres unmarked) [Example 100]	0.0013	< 0.1	0.0215	< 0.1
C=C(C)[C@@H]1CC[C@]2(C(=O)NCc3cc(C(=O)NCc4cccc(C(=O)O)c4)ccc3F)CC[C@]3(C)C(CCC4[C@@]5(C)CC[C@H](O)C(C)(C)C5CC[C@]43C)C12 (some centres unmarked) [Example 101]	0.0032	< 0.1	0.0283	< 0.1
C=C(C)[C@@H]1CC[C@]2(C(=O)NCc3cc(C(=O)NCc4cccc(C(=O)OC)c4)ccc3F)CC[C@]3(C)C(CCC4[C@@]5(C)CC[C@H](O)C(C)(C)C5CC[C@]43C)C12 (some centres unmarked) [Example 102]	0.0006	< 0.1	0.022	< 0.1
C=C(C)[C@@H]1CC[C@]2(C(=O)NCc3ccc(F)c(C(=O)NCCc4ccc(C(=O)O)cc4)c3)CC[C@]3(C)C(CCC4[C@@]5(C)CC[C@H](O)C(C)(C)C5CC[C@]43C)C12 (some centres unmarked) [Example 103]	0.0073	< 0.1	0.0693	< 0.1
C=C(C)[C@@H]1CC[C@]2(C(=O)NCc3ccc(F)c(C(=O)NCCc4cccc(C(=O)O)c4)c3)CC[C@]3(C)C(CCC4[C@@]5(C)CC[C@H](O)C(C)(C)C5CC[C@]43C)C12 (some centres unmarked) [Example 105]	0.0085	< 0.1	0.0621	< 0.1
C=C(C)[C@@H]1CC[C@]2(C(=O)NCc3ccc(F)c(C(=O)NCc4ccc(C(=O)O)cc4)c3)CC[C@]3(C)C(CCC4[C@@]5(C)CC[C@H](O)C(C)(C)C5CC[C@]43C)C12 (some centres unmarked) [Example 107]	0.13		0.103	
C=C(C)[C@@H]1CC[C@]2(C(=O)NCc3ccc(F)c(C(=O)NCc4ccc(C(=O)OC)cc4)c3)CC[C@]3(C)C(CCC4[C@@]5(C)CC[C@H](O)C(C)(C)C5CC[C@]43C)C12 (some centres unmarked) [Example 108]	0.1	< 0.1	0.109	
C=C(C)[C@@H]1CC[C@]2(C(=O)NCc3ccc(F)c(C(=O)NCc4cccc(C(=O)O)c4)c3)CC[C@]3(C)C(CCC4[C@@]5(C)CC[C@H](O)C(C)(C)C5CC[C@]43C)C12 (some centres unmarked) [Example 109]	0.05	< 0.1	0.149	
C=C(C)[C@@H]1CC[C@]2(C(=O)NCCc3ccc(O)cc3)CC[C@]3(C)C(CCC4[C@@]5(C)CC[C@H](O)C(C)(C)C5CC[C@]43C)C12 (some centres unmarked) [Example 111]	3.8		0.0722	< 0.1
C=C(C)[C@@H]1CC[C@]2(C(=O)NCc3ccc(OC)c(C(=O)NCCCCC(=O)O)c3)CC[C@]3(C)C(CCC4[C@@]5(C)CC[C@H](O)C(C)(C)C5CC[C@]43C)C12 (some centres unmarked) [Example 114]	0.211		0.0484	< 0.1
C=C(C)[C@@H]1CC[C@]2(C(=O)NCc3cccc(C(=O)NCc4ccc(OCCCC(=O)O)c(C(=O)O)c4)c3)CC[C@]3(C)C(CCC4[C@@]5(C)CC[C@H](O)C(C)(C)C5CC[C@]43C)C12 (some centres unmarked) [Example 117]	0.384		0.076	< 0.1
C=C(C)[C@@H]1CC[C@]2(C(=O)NCc3cccc(C(=O)NCc4ccc(OCCCn5ccnc5)c(C(=O)OC)c4)c3)CC[C@]3(C)C(CCC4[C@@]5(C)CC[C@H](O)C(C)(C)C5CC[C@]43C)C12 (some centres unmarked) [Example 121]	0.017		0.0213	
C=C(C)[C@@H]1CC[C@]2(C(=O)NCc3cccc(C(=O)NCc4ccc(OCCCN5CCOCC5)c(C(=O)OC)c4)c3)CC[C@]3(C)C(CCC4[C@@]5(C)CC[C@H](O)C(C)(C)C5CC[C@]43C)C12 (some centres unmarked) [Example 123]	0.013	< 0.1	0.0189	< 0.1
C=C(C)[C@@H]1CC[C@]2(C(=O)NCc3cccc(C(=O)NCc4ccc(OCCCN5CCOCC5)c(C(=O)O)c4)c3)CC[C@]3(C)C(CCC4[C@@]5(C)CC[C@H](O)C(C)(C)C5CC[C@]43C)C12 (some centres unmarked) [Example 124]	0.008	< 0.1	0.0279	< 0.1
C=C(C)[C@@H]1CC[C@]2(C(=O)NCc3cccc(C(=O)NCc4ccc(OCCCO)c(C(=O)O)c4)c3)CC[C@]3(C)C(CCC4[C@@]5(C)CC[C@H](O)C(C)(C)C5CC[C@]43C)C12 (some centres unmarked) [Example 125]	0.056	< 0.1	0.042	< 0.1
C=C(C)[C@@H]1CC[C@]2(C(=O)NCCc3cccc(-c4nc5ccc(C(=O)O)cc5[nH]4)c3)CC[C@]3(C)C(CCC4[C@@]5(C)CC[C@H](O)C(C)(C)C5CC[C@]43C)C12 (some centres unmarked) [Example 130]	0.23		0.039	
C=C(C)[C@@H]1CC[C@]2(C(=O)NCCc3cccc(C(=O)NCc4ccc(C(=O)N[C@@H](CCC(=O)O)C(=O)O)cc4)c3)CC[C@]3(C)C(CCC4[C@@]5(C)CC[C@H](O)C(C)(C)C5CC[C@]43C)C12 (some centres unmarked) [Example 133]	0.084	< 0.1	0.034	< 0.1
C=C(C)[C@@H]1CC[C@]2(C(=O)NCCc3cccc(C(=O)NCc4ccc(C(=O)N(C)CCN(C)C)cc4)c3)CC[C@]3(C)C(CCC4[C@@]5(C)CC[C@H](O)C(C)(C)C5CC[C@]43C)C12 (some centres unmarked) [Example 134]	0.24		0.0687	< 0.1
C=C(C)[C@@H]1CC[C@]2(C(=O)NCCc3cccc(C(=O)NCc4ccc(C(=O)NCCN(C)C)cc4)c3)CC[C@]3(C)C(CCC4[C@@]5(C)CC[C@H](O)C(C)(C)C5CC[C@]43C)C12 (some centres unmarked) [Example 135]	0.533		0.07	< 0.1
C=C(C)[C@@H]1CC[C@]2(C(=O)NCCc3cccc(C(=O)NCc4ccc(C(=O)NCCN5CCOCC5)cc4)c3)CC[C@]3(C)C(CCC4[C@@]5(C)CC[C@H](O)C(C)(C)C5CC[C@]43C)C12 (some centres unmarked) [Example 136]	0.0141	< 0.1	0.0116	< 0.1
C=C(C)[C@@H]1CC[C@]2(C(=O)NCCc3cccc(C(=O)NCc4ccc(C(=O)N(C)CCc5ccccn5)cc4)c3)CC[C@]3(C)C(CCC4[C@@]5(C)CC[C@H](O)C(C)(C)C5CC[C@]43C)C12 (some centres unmarked) [Example 137]	0.0105	< 0.1	0.0108	< 0.1
C=C(C)[C@@H]1CC[C@]2(C(=O)NCc3cccc(C(=O)NCCCCC(=O)O)c3)CC[C@]3(C)C(CCC4[C@@]5(C)CCC(=O)C(C)(C)C5CC[C@]43C)C12 (some centres unmarked) [Example 141]	1.5		0.157	
C=C(C)[C@@H]1CC[C@]2(CNCc3cccc(C(=O)NCc4cccc(C(=O)O)c4)c3)CC[C@@]3(C)C(CCC4[C@@]5(C)CC[C@H](O)C(C)(C)C5CC[C@]43C)C12 (some centres unmarked) [Example 143]	1.3		0.12	
C=C(C)[C@@H]1CC[C@]2(C(=O)NCCc3cccc(C(=O)NC(Cc4ccc(OCC(=O)O)cc4)C(=O)O)c3)CC[C@]3(C)C(CCC4[C@@]5(C)CC[C@H](O)C(C)(C)C5CC[C@]43C)C12 (some centres unmarked) [Example 146]	3.3		0.197	
C=C(C)[C@@H]1CC[C@]2(C(=O)NCCc3cccc(C(=O)NCCc4ccc(O)cc4)c3)CC[C@]3(C)C(CCC4[C@@]5(C)CC[C@H](O)C(C)(C)C5CC[C@]43C)C12 (some centres unmarked) [Example 147]	0.03		0.0266	
C=C(C)[C@@H]1CC[C@]2(C(=O)NCCc3cccc(C(=O)NCc4ccc(S(=O)(=O)NCCN5CCOCC5)cc4)c3)CC[C@]3(C)C(CCC4[C@@]5(C)CC[C@H](O)C(C)(C)C5CC[C@]43C)[C@@H]12 (some centres unmarked) [Example 148]	0.053		0.006	
C=C(C)[C@@H]1CC[C@]2(C(=O)NCCc3cccc(C(=O)NCc4ccc(N)cn4)c3)CC[C@]3(C)C(CCC4[C@@]5(C)CC[C@H](O)C(C)(C)C5CC[C@]43C)[C@@H]12 (some centres unmarked) [Example 149]	0.088		0.023	
C=C(C)[C@@H]1CC[C@]2(C(=O)NCCc3cccc(C(=O)NCc4ccccn4)c3)CC[C@]3(C)C(CCC4[C@@]5(C)CC[C@H](O)C(C)(C)C5CC[C@]43C)C12 (some centres unmarked) [Example 150]	0.122		0.024	
